Key:
B. subtilis 168 = assay: fitness (endpoint OD595 vs no drug) (fraction); higher = more growth
How it was run: (§1)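 With the first reading as background, OD595 was measured every 30 min for 14 h in 384-well plates kept at 37 °C and inoculated at OD595 0.01. TSB, LB Lennox or CY was the medium. Fitness is the optical density at the transition into stationary phase divided by the robust mean of no-drug control wells, with a cap of 1.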

S. pneumoniae D39V = assay: as above
How it was run: as §1
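Note: OD595 on entry to stationary phase over no-drug wells; at most 1.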

N[C@@H]1CONC1=O [Cycloserine D] + CCC(C)C1C(=O)NC(=C)C(=O)NC(C(=O)NC(CSCC(C(=O)N1)NC(=O)/C(=C/C)/NC(=O)C(C(C)CC)N)C(=O)NC2C(SCC(NC(=O)CNC(=O)C3CCCN3C2=O)C(=O)NC(CCCCN)C(=O)NC4C(SCC(NC(=O)CNC(=O)C(NC(=O)C(NC(=O)C(NC(=O)CNC4=O)C)CC(C)C)CCSC)C(=O)NC(CC(=O)N)C(=O)NC(CCSC)C(=O)NC(CCCCN)C(=O)NC5C(SCC6C(=O)NC(C(=O)NC(CSC(C(C(=O)N6)NC(=O)C(NC5=O)C)C)C(=O)NC(CO)C(=O)NC(C(C)CC)C(=O)NC(CC7=CN=CN7)C(=O)NC(C(C)C)C(=O)NC(=C)C(=O)NC(CCCCN)C(=O)O)CC8=CN=CN8)C)C)C)CC(C)C [Nisin]
fitness, B. subtilis 168, main component drawn
Conditions | first compound 0.125 µg/mL | first compound 0.25 µg/mL | first compound 0.5 µg/mL
partner 0.5 µg/mL | 0.926 | 0.867 | 0.878
partner 1 µg/mL | 0.888 | 0.824 | 0.81
partner 2 µg/mL | 0.589 | 0.601 | 0.606

fitness, B. subtilis 168, one replicate, main component drawn
Conditions | partner 1.25 µg/mL | partner 1.6 µg/mL | partner 2.5 µg/mL | partner 3.2 µg/mL | partner 4 µg/mL | partner 5 µg/mL | partner 6.4 µg/mL | partner 8 µg/mL | partner 16 µg/mL
first compound 0.125 µg/mL | ≥ 1 | 0.654 | 0.708 | 0.0215 | 0.0688 | 0.137 | 0.0306 | 0.0472 | 0.0248
first compound 0.25 µg/mL | ≥ 1 | 0.681 | 0.698 | 0.0139 | 0.0497 | 0.0686 | 0.0459 | 0.0297 | 0.0048
first compound 0.5 µg/mL | 0.985 | 0.721 | 0.341 | 0.0205 | 0.041 | 0.0366 | 0.017 | 0.0245 | 0.0169

N[C@@H]1CONC1=O [Cycloserine D] + CN(C)C(=O)C(CCN1CCC(O)(c2ccc(Cl)cc2)CC1)(c1ccccc1)c1ccccc1 [Loperamide]
fitness, B. subtilis 168
Conditions | first compound 0.125 µg/mL | first compound 0.25 µg/mL | first compound 0.5 µg/mL
partner 50 µg/mL | 0.0169 | 0.0651 | 0.0491
partner 100 µg/mL | 0.0259 | 0.0243 | 0.0094

N[C@@H]1CONC1=O [Cycloserine D] + CO[C@@H]1[C@@H](OC(N)=O)[C@@H](O)[C@H](Oc2ccc3c(O)c(NC(=O)c4ccc(O)c(CC=C(C)C)c4)c(=O)oc3c2C)OC1(C)C [Novobiocin]
fitness, B. subtilis 168
Conditions | first compound 0.125 µg/mL | first compound 0.25 µg/mL | first compound 0.5 µg/mL
partner 0.0125 µg/mL | 0.987 | 0.943 | 0.922
partner 0.025 µg/mL | 0.957 | 0.957 | 0.913
partner 0.05 µg/mL | ≥ 1 | 0.994 | 0.992

fitness, B. subtilis 168, one replicate
Conditions | partner 0.1 µg/mL | partner 0.125 µg/mL | partner 0.2 µg/mL | partner 0.25 µg/mL | partner 0.5 µg/mL
first compound 0.125 µg/mL | 0.906 | 0.871 | 0.921 | 0.908 | 0.605
first compound 0.25 µg/mL | 0.995 | 0.962 | ≥ 1 | 0.852 | 0.632
first compound 0.5 µg/mL | ≥ 1 | 0.967 | 0.952 | 0.958 | 0.544

N[C@@H]1CONC1=O [Cycloserine D] + C[C@H]1COc2c(N3CCN(C)CC3)c(F)cc3c(=O)c(C(=O)O)cn1c23 [Levofloxacin]
fitness, B. subtilis 168, one replicate
Conditions | first compound 0.125 µg/mL | first compound 0.25 µg/mL | first compound 0.5 µg/mL
partner 0.001 µg/mL | 0.979 | 0.973 | 0.987
partner 0.0078 µg/mL | 0.898 | 0.863 | 0.968

fitness, B. subtilis 168
Conditions | partner 0.002 µg/mL | partner 0.0039 µg/mL | partner 0.0312 µg/mL | partner 0.0625 µg/mL | partner 0.125 µg/mL
first compound 0.125 µg/mL | 0.93 | 0.92 | 0.0375 | 0.0466 | 0.0546
first compound 0.25 µg/mL | 0.921 | 0.902 | 0.0356 | 0.0536 | 0.0482
first compound 0.5 µg/mL | 0.965 | 0.995 | 0.0328 | 0.0466 | 0.0559

N[C@@H]1CONC1=O [Cycloserine D] + C[C@H]1c2cccc(O)c2C(=O)C2=C(O)[C@]3(O)C(=O)C(C(N)=O)=C(O)[C@@H](N(C)C)[C@@H]3[C@@H](O)[C@@H]21 [Doxycycline]
fitness, B. subtilis 168
Conditions | first compound 0.125 µg/mL | first compound 0.25 µg/mL | first compound 0.5 µg/mL
partner 0.02 µg/mL | 0.909 | 0.903 | 0.898
partner 0.04 µg/mL | 0.738 | 0.732 | 0.709

C[C@@H](O)[C@H]1C(=O)N2C(C(=O)O)=C(SCCNC=N)C[C@H]12 [Imipenem] + CC1=C(C(=O)O)N2C(=O)[C@@H](NC(=O)[C@H](N)c3ccccc3)[C@H]2SC1 [Cephalexin]
fitness, S. pneumoniae D39V, one replicate
Conditions | first compound 0.005 µg/mL | first compound 0.01 µg/mL | first compound 0.02 µg/mL
partner 0.125 µg/mL | 0.899 | 0.909 | 0.942
partner 0.25 µg/mL | 0.874 | 0.946 | 0.938
partner 0.5 µg/mL | 0.943 | 0.978 | 0.95

fitness, S. pneumoniae D39V
Conditions | first compound 0.0065 µg/mL | first compound 0.013 µg/mL | first compound 0.026 µg/mL
partner 1 µg/mL | 0.278 | 0.4 | 0.176
partner 2 µg/mL | 0.0001 | 0.0222 | 0.0128
partner 4 µg/mL | 0.0361 | 0.0148 | 0.0072

C[C@@H](O)[C@H]1C(=O)N2C(C(=O)O)=C(SCCNC=N)C[C@H]12 [Imipenem] + CO[C@@]12[C@H](COC(N)=O)C3=C(C(=O)C(C)=C(N)C3=O)N1C[C@@H]1N[C@@H]12 [Mitomycin C]
S. pneumoniae D39V
Conditions | fitness
first compound 0.005 µg/mL, partner 0.001075 µg/mL | 0.906
first compound 0.005 µg/mL, partner 0.00215 µg/mL | 0.923
first compound 0.005 µg/mL, partner 0.0043 µg/mL | 0.815
first compound 0.0065 µg/mL, partner 0.002 µg/mL | 0.797
first compound 0.0065 µg/mL, partner 0.004 µg/mL | 0.657
first compound 0.01 µg/mL, partner 0.001075 µg/mL | 0.921
first compound 0.01 µg/mL, partner 0.00215 µg/mL | 0.876
first compound 0.01 µg/mL, partner 0.0043 µg/mL | 0.804
first compound 0.013 µg/mL, partner 0.002 µg/mL | 0.583
first compound 0.013 µg/mL, partner 0.004 µg/mL | 0.731
first compound 0.013 µg/mL, partner 0.008 µg/mL | 0.56
first compound 0.02 µg/mL, partner 0.001075 µg/mL | 0.937
first compound 0.02 µg/mL, partner 0.00215 µg/mL | 0.919
first compound 0.02 µg/mL, partner 0.0043 µg/mL | 0.78
first compound 0.026 µg/mL, partner 0.002 µg/mL | 0.737
first compound 0.026 µg/mL, partner 0.004 µg/mL | 0.668
first compound 0.026 µg/mL, partner 0.008 µg/mL | 0.417

O=C1CN(/N=C/c2ccc([N+](=O)[O-])o2)C(=O)N1 [Nitrofurantoin] + CCC(C)C1C(=O)NC(=C)C(=O)NC(C(=O)NC(CSCC(C(=O)N1)NC(=O)/C(=C/C)/NC(=O)C(C(C)CC)N)C(=O)NC2C(SCC(NC(=O)CNC(=O)C3CCCN3C2=O)C(=O)NC(CCCCN)C(=O)NC4C(SCC(NC(=O)CNC(=O)C(NC(=O)C(NC(=O)C(NC(=O)CNC4=O)C)CC(C)C)CCSC)C(=O)NC(CC(=O)N)C(=O)NC(CCSC)C(=O)NC(CCCCN)C(=O)NC5C(SCC6C(=O)NC(C(=O)NC(CSC(C(C(=O)N6)NC(=O)C(NC5=O)C)C)C(=O)NC(CO)C(=O)NC(C(C)CC)C(=O)NC(CC7=CN=CN7)C(=O)NC(C(C)C)C(=O)NC(=C)C(=O)NC(CCCCN)C(=O)O)CC8=CN=CN8)C)C)C)CC(C)C [Nisin]
S. pneumoniae D39V, main component drawn
Conditions | fitness
first compound 1.285 µg/mL, partner 1.6 µg/mL | 0.0025
first compound 1.285 µg/mL, partner 3.2 µg/mL | 0.0467
first compound 1.285 µg/mL, partner 6.4 µg/mL | 0.0134
first compound 2 µg/mL, partner 0.4275 µg/mL | 0.988
first compound 2 µg/mL, partner 0.855 µg/mL | 0.991
first compound 2 µg/mL, partner 1.71 µg/mL | 0.075
first compound 2.57 µg/mL, partner 1.6 µg/mL | 0.0197
first compound 2.57 µg/mL, partner 3.2 µg/mL | 0.0583
first compound 2.57 µg/mL, partner 6.4 µg/mL | 0.0339
first compound 4 µg/mL, partner 0.4275 µg/mL | 0.971
first compound 4 µg/mL, partner 0.855 µg/mL | 0.993
first compound 4 µg/mL, partner 1.71 µg/mL | 0.0559
first compound 8 µg/mL, partner 0.4275 µg/mL | 0.85
first compound 8 µg/mL, partner 1.71 µg/mL | 0.0537

S. pneumoniae D39V, first compound 5.14 µg/mL, one replicate, main component drawn
Conditions | fitness
partner 1.6 µg/mL | 0.0172
partner 3.2 µg/mL | 0.0456
partner 6.4 µg/mL | 0.0152

C/C(=C\C(=O)OCCCCCCCCC(=O)O)C[C@@H]1OC[C@H](C[C@@H]2O[C@H]2[C@@H](C)[C@H](C)O)[C@@H](O)[C@H]1O [Pseudomonic acid] + CCC(C)C1C(=O)NC(=C)C(=O)NC(C(=O)NC(CSCC(C(=O)N1)NC(=O)/C(=C/C)/NC(=O)C(C(C)CC)N)C(=O)NC2C(SCC(NC(=O)CNC(=O)C3CCCN3C2=O)C(=O)NC(CCCCN)C(=O)NC4C(SCC(NC(=O)CNC(=O)C(NC(=O)C(NC(=O)C(NC(=O)CNC4=O)C)CC(C)C)CCSC)C(=O)NC(CC(=O)N)C(=O)NC(CCSC)C(=O)NC(CCCCN)C(=O)NC5C(SCC6C(=O)NC(C(=O)NC(CSC(C(C(=O)N6)NC(=O)C(NC5=O)C)C)C(=O)NC(CO)C(=O)NC(C(C)CC)C(=O)NC(CC7=CN=CN7)C(=O)NC(C(C)C)C(=O)NC(=C)C(=O)NC(CCCCN)C(=O)O)CC8=CN=CN8)C)C)C)CC(C)C [Nisin]
fitness, S. pneumoniae D39V, main component drawn
Conditions | partner 0.4275 µg/mL | partner 0.855 µg/mL | partner 1.6 µg/mL | partner 1.71 µg/mL | partner 3.2 µg/mL | partner 6.4 µg/mL
first compound 0.03 µg/mL | 0.935 | 0.928 | – | 0.0945 | 0.0435 | 0.0142
first compound 0.06 µg/mL | 0.858 | 0.81 | – | 0.0658 | 0.0566 | 0.0188
first compound 0.12 µg/mL | 0.51 | 0.21 | 0.174 | 0.0732 | 0.0384 | 0.0513

C/C(=C\C(=O)OCCCCCCCCC(=O)O)C[C@@H]1OC[C@H](C[C@@H]2O[C@H]2[C@@H](C)[C@H](C)O)[C@@H](O)[C@H]1O [Pseudomonic acid] + O=C1CN(/N=C/c2ccc([N+](=O)[O-])o2)C(=O)N1 [Nitrofurantoin]
fitness, S. pneumoniae D39V
Conditions | partner 1.285 µg/mL | partner 2 µg/mL | partner 2.57 µg/mL | partner 4 µg/mL | partner 8 µg/mL
first compound 0.03 µg/mL | 0.916 | 0.854 | 0.942 | 0.872 | 0.793
first compound 0.06 µg/mL | 0.815 | 0.773 | 0.819 | 0.706 | 0.718
first compound 0.12 µg/mL | 0.616 | 0.563 | 0.605 | 0.59 | 0.515

S. pneumoniae D39V, partner 5.14 µg/mL, one replicate
Conditions | fitness
first compound 0.03 µg/mL | 0.912
first compound 0.06 µg/mL | 0.8
first compound 0.12 µg/mL | 0.556
